Legend:
[1] = molecular target: human STING ligand-binding domain (hSTING-LBD) (Homo sapiens, UniProt Q86WV6); test: BLI Kd
[2] = molecular target: T1, mouse STING ligand-binding domain (mSTING-LBD) (Mus musculus, UniProt Q3TBT3); test: BLI
T1 sequence (Q3TBT3 146-370): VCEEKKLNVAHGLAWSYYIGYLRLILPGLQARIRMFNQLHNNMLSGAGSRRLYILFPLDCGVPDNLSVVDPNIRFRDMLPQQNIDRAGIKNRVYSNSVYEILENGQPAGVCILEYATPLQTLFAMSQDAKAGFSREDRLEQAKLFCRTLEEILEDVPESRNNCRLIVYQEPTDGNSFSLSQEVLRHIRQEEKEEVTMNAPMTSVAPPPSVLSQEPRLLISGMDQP

Sequence of human STING ligand-binding domain (hSTING-LBD) (Q86WV6 155-343): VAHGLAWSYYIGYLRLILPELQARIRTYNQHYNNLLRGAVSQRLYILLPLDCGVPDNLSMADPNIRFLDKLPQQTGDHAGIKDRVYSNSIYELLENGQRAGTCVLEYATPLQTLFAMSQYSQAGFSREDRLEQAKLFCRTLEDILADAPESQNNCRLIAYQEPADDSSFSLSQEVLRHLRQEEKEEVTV

**Q.** Which results are given for `C=CCc1ccc(O)c(-c2ccc(O)c(CC=C)c2)c1` [honokiol]?
**A.** Kd [1]: 12.9 ± 0.4 µM; Kd [2]: 17 ± 0.5 µM
